Here are results for five compounds from publication PMC12197429, “Evaluation of the Antileishmanial Activity of Some Benzimidazole Derivatives Using In Vitro and In Silico Techniques” (Veterinary Sciences, 2025).

For series [1], the system named is L. (L.) major promastigotes. As to the kind of experiment: In vitro antileishmanial activity (CellTiter-Glo luminescent cell viability). The series is classed as cell-based, Leishmania (L.) major. Details: key to Activity class against promastigotes based on IC50: very active (IC50 < 10 μg/mL); active (IC50 > 10 < 50 μg/mL); moderately active (IC50 > 50 < 100 μg/mL); inactive (IC50 > 100 μg/mL). The following applies: for IC50: Leishmania major; for Selectivity index (SI): SI = CC50 (L929)/IC50 (L. (L.) major promastigotes). On the procedure:
Protozoan isolates were obtained from the Parasite Bank at the Department of Parasitology, Faculty of Medicine, Manisa Celal Bayar University. The subsequent procedure for acquiring promastigotes was as follows: the major L. (L.) isolate was classified as MHOM/TR/2014/CBL-LM. It was preserved in liquid nitrogen and defrosted by placing it in a water bath at 37 °C for two minutes after its removal from preservation. Subsequent to melting, the NNN medium was inoculated and incubated in an incubator at 25 °C. The reproductive condition of the protozoan was assessed by making coverslips and slides twice daily. Following parasite replication, the cells were transferred from the NNN medium to the RPMI-1640 medium (Gibco, Paisley, Scotland, UK) to facilitate further proliferation. Before application, 10% fetal calf serum, 1% penicillin/streptomycin, and 1% gentamicin were added to a widely available commercial medium. Distribution was conducted using 5 milliliters per 25 mL flask, and cultivation was performed by adding 50 μL of the cultured promastigotes. Flasks designated for cultivation were incubated in a 25 °C incubator. Parasite reproduction was observed, and the medium was supplemented every 2–3 days. Subsequently, the number of promastigotes was quantified using a Thoma chamber, yielding a concentration of 10^6 promastigotes/mL, and a suspension comprising promastigotes was formulated.
The synthesized compounds were dissolved in DMSO to a final concentration of no more than 0.5% [51]. Based on preliminary studies, the K1 compound was prepared at concentrations ranging from 0.23 µg/mL to 30 µg/mL, while the K2, K3, and K4 compounds were prepared at concentrations ranging from 1.95 µg/mL to 250 µg/mL.
The assay was conducted using 96-well flat-bottom microtiter plates, with three replicate wells per experimental group. The groups included a blank control, parasite control (no treatment), drug control (Amphotericin B), and test groups for compounds K1, K2, K3, and K4. Each well was filled with 100 µL of RPMI-1640 medium supplemented with 10% fetal calf serum, 1% penicillin/streptomycin, and 1% gentamicin. For the four test compounds and Amphotericin B, 100 µL of the respective solution was added to the first well of each group. The contents were mixed thoroughly using an automated dispensing pipette, followed by serial dilutions down the respective wells. Promastigote suspensions, previously counted using a Thoma counting chamber, were added at 100 µL per well to all wells except those designated as blanks. No parasites were added to the blank wells. The plates were then covered with lids, sealed with parafilm, and incubated at 25 °C. Following incubation, cell viability was assessed using the CellTiter-Glo® Luminescent Cell Viability Assay Kit (Promega, Madison, WI, USA). This experimental procedure was repeated in three independent experiments conducted at different time points.
It is calculated as the ratio of the cytotoxic concentration (CC50) required to cause 50% cell death in mammalian cells to the inhibitory concentration (IC50) required to kill 50% of the parasites. The selectivity index values of benzimidazole derivatives for L. (L.) major promastigotes were determined using the following equation: SI = CC50/IC50 [55].
For orientation: In ATP-based viability assays light output follows the ATP content of the culture.

The subject of series [2] is L. (L.) major promastigotes. As to the kind of experiment: Morphological alterations of promastigotes by Giemsa staining. The following applies: serial dilutions 0.23 µg/mL to 30 µg/mL, 48 h. The class given is cell-based, Leishmania (L.) major. On the procedure:
The morphological alterations caused by compound K1 at various concentrations in L. (L.) major promastigotes were assessed at the 48 h mark utilizing Giemsa staining (Figure 3).
Figure 3 Control (a) and serial dilutions of the K1 compound (ranging from 0.23 µg/mL to 30 µg/mL) (b–l) in wells containing L. (L.) major promastigotes (100× magnification).

The next series is described as follows: Cytotoxicity test (MTT). The class given is cell-based, mouse. The following applies: L929 mouse fibroblast cells, 48 h, MTT. How it is done:
(§1) The cytotoxic effects of the benzimidazole derivatives and AmpB were determined using the L929 cell line (American Type Culture Collection, Manassas, VA, USA). In total, 100 µL of the cell suspension (10^5/mL) was added to each well comprising sterile, flat-bottomed 96-well microplates. The microplates were then incubated at 37 °C in a 5% CO2 incubator for 24 h. Cytotoxic activity was evaluated using the same concentrations applied in the antileishmanial activity assessment. For compound K1, serial dilutions were prepared in the range of 0.23–30 µg/mL, and for the other compounds, in the range of 1.95–250 µg/mL. These dilutions were added to a second microplate, and 100 µL from each well was transferred to the first plate. The plates were then incubated under the same conditions for an additional 48 h.
(§2) Cell viability was determined using the 3-(4.5-dimethylthiazol-2-yl)-2.5-diphenyltetrazolium bromide) (Sigma, Kawasaki, Japan) method. After the completion of the incubation period, all media from the microplates, both containing and lacking the active ingredient, were discarded. Subsequently, 100 μL of MTT suspension was added to each well, and the plates were incubated in a CO2 incubator at 37 °C for four hours. At the end of the incubation period, all wells in the microplates were emptied, and 100 μL of pure DMSO (to dissolve the formazan crystals) was pipetted into each well and incubated under the same conditions for 30 min. Absorbance was measured at 570 nm using a spectrophotometer (Biotek 800TS, Winooski, VT, USA). CC50 values were determined using GraphPad Prism version 8.4.2. All experiments were performed in triplicate, with three independent trials and two replicates per trial.

The test system of a further series is L929 cell line. Description: Cytotoxicity test (MTT). The class given is cell-based, mouse. The following applies: L929 cells. On the procedure:
as §1, §2

Setting [3] is: L. (L.) major promastigotes (MHOM/TR/2014/CBL-LM), 25 °C, CellTiter-Glo, read-out: IC50 (antileishmanial activity).

In brackets after ≈: the same amount, converted by molar mass. Like-named read-outs stand apart in the source and are kept apart here.

For the compound `C[C@@H]1[C@H](O)[C@@H](C)/C=C/C=C/C=C/C=C/C=C/C=C/C=C/[C@H](O[C@@H]2O[C@H](C)[C@@H](O)[C@H](N)[C@@H]2O)C[C@@H]2O[C@](O)(C[C@@H](O)C[C@@H](O)[C@H](O)CC[C@@H](O)C[C@@H](O)CC(=O)O[C@H]1C)C[C@H](O)[C@H]2C(=O)O` [AmpB, Amphotericin B, reference compound], in series [1] (setting [3]), the IC50 (usually the concentration needed to halve the response being measured) worked out at 0.274 µg/mL (≈ 0.297 µM).
On to `CC(=O)c1nc2ccccc2n1CC(=O)c1cccc(Cl)c1` [K1], for which, in series [2], the “Morphological alterations in promastigotes” value was “decreases in the number of promastigotes and morphological structural disruptions were observed”. Besides, in “Cytotoxicity test (MTT)”, the CC50 (usually the concentration that lowers cell viability or growth by half) at 48 h was determined as 250 µg/mL (≈ 799 µM). Moreover, the “Cytotoxic effect on L929 cells” value in the series on L929 cell line was “not observed”. Moreover, in series [1] (setting [3]), the IC50 was 0.679 µg/mL (≈ 2.17 µM). Moreover, the “Selectivity index (SI)” value in series [1] worked out at 368.25.
As to `Cc1nc(-c2cccc(Cl)c2)cn2c1nc1ccccc12` [K2], the CC50 at 48 h in the series “Cytotoxicity test (MTT)” amounted to 63 µg/mL (≈ 214 µM). In addition, in series [1] (setting [3]), the IC50 turned out to be 8.89 µg/mL (≈ 30.3 µM). Moreover, in series [1], the “Selectivity index (SI)” value was 7.08.
In the series “Cytotoxicity test (MTT)”, `Cc1nc(-c2ccccc2)cn2c1nc1ccccc12` [K3] displayed a CC50 at 48 h of 0.56 µg/mL (≈ 2.16 µM). Moreover, the “Activity class against promastigotes based on IC50” value in series [1] (L. (L.) major promastigotes) was “active”. Also, the IC50 in series [1] (setting [3]) was 45.1 µg/mL (≈ 174 µM). Besides, the “Selectivity index (SI)” value in series [1] was 0.012.
`Cc1nc(-c2ccc(Cl)cc2)cn2c1nc1ccccc12` [K4]: the CC50 at 48 h in “Cytotoxicity test (MTT)” turned out to be 292 µg/mL (≈ 994 µM). Further, the IC50 in series [1] (setting [3]) was 69.2 µg/mL (≈ 236 µM); in series [1] (L. (L.) major promastigotes, read-out: Activity class against promastigotes based on IC50), 50 to 100 µg/mL (≈ 170 to 340 µM). Also, in series [1], the “Selectivity index (SI)” value stood at 4.22.
